Measurements published in patent US11648254B2 (Kumquat Biosciences Inc., priority 2021, dated 2023).
Like-named read-outs stand apart in the source and are kept apart here.

Legend:
[1] = target: SOS1 (Homo sapiens (Human), UniProt Q07889); assay: Ras-SOS interaction assay (HTRF); format: biochemical
[2] = system: MIA PaCa-2 cells (K-Ras G12C); assay: Ras-SOS cellular growth inhibition assay (CellTiter-Glo, 3D); format: cell-based; details: Homo sapiens
In short: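 Growth read by CellTiter-Glo luminescence about 5 days after dosing with 3-fold dilutions (9 points), added one day post-seeding. Cells: MIA PaCa-2, 3D culture on ultra-low-attachment surface, medium DMEM/Ham's F12 plus 10% FCS and 2.5% horse serum; IC50 by four-parameter fit.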

[3] = system: NCI-H1975 cells (EGFR T790M L858R); assay: EGFR-SOS cellular inhibition assay (CellTiter-Glo, 3D); format: cell-based; details: Homo sapiens
[4] = K-RasG13D utilized, read-out: IC50 inhibition of SOS
[5] = K-RasG13D, read-out: IC50 value against SOS1
[6] = MIA PaCa-2, 120 h, MIA PaCa-2, 3D proliferation, about 5 days, read-out: Bio-Cell-Prolif-3D (MiaPaca2 IC50)
[7] = MIA PaCa-2, MIA PaCa-2, read-out: IC50 in inhibiting MIA PaCa-2 cell growth
[8] = 120 h, NCI-H1975, 3D proliferation, about 5 days, read-out: Bio-Cell-Prolif-3D (H1975 IC50)
[9] = NCI-H1975, EGFR T790M L858R, read-out: IC50 in inhibiting growth of NCI-H1975 cell line

Chain of SOS1 (Q07889 564-1049): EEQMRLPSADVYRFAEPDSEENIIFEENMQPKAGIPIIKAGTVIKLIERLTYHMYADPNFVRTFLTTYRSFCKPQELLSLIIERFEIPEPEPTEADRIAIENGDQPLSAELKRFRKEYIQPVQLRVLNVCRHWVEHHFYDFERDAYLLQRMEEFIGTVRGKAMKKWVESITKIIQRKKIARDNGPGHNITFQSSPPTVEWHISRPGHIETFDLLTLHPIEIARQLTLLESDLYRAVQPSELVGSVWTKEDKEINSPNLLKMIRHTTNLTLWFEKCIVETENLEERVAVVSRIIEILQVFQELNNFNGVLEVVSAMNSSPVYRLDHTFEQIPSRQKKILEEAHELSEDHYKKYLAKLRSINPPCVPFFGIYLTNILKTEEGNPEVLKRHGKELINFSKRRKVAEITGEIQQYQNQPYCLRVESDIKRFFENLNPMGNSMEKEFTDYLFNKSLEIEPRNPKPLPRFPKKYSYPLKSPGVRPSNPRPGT

Row | Structure (SMILES) | IC50 [1, 4] [nM] | IC50 [1, 5] [nM] | IC50 [2, 6] [nM] | IC50 [2, 7] [nM] | IC50 [3, 8] [nM] | IC50 [3, 9] [nM]
1 | COc1nc2nc(C)nc(N[C@H](C)c3cccc(C(F)(F)C4CCN(C(C)C)CC4)c3F)c2cc1C1CCN(C(C)C)CC1 [Compound 161, (R)-N-(1-(3-(difluoro(1-isopropylpiperidin-4-yl)methyl)-2-fluorophenyl)ethyl)-6-(1-isopropylpiperidin-4-yl)-7-methoxy-2-methylpyrido[2,3-d]pyrimidin-4-amine] | < 100 | < 50 | ≤ 1000 | < 500 | ≤ 1000 | < 500
2 | Cc1nc(N[C@H](C)c2cccc(C(F)(F)F)c2F)c2cc(C3CCN(C(C)C)CC3)c(Cl)nc2n1 [Compound 391, (R)-7-chloro-N-(1-(2-fluoro-3-(trifluoromethyl)phenyl)ethyl)-6-(1-isopropylpiperidin-4-yl)-2-methylpyrido[2,3-d] pyrimidin-4-amine] | < 100 | < 50 | ≤ 1000 | < 500 | ≤ 1000 | < 500
3 | COc1nc2nc(OC[C@@H]3CCCN3C)nc(N[C@H](C)c3cccc(C(F)F)c3F)c2cc1C1(C#N)CC1 [Compound 326, 1-(4-(((R)-1-(3-(difluoromethyl)-2-fluorophenyl)ethyl)amino)-7-methoxy-2-(((S)-1-methylpyrrolidin-2-yl)methoxy)pyrido[2,3-d]pyrimidin-6-yl)cyclopropane-1-carbonitrile] | < 100 | < 50 | ≤ 1000 |  | ≤ 1000 | < 500
4 | C[C@@H](Nc1ncnc2nc(OCCN(C)C)c(C3CCS(=O)(=O)CC3)cc12)c1cccc(C(F)F)c1F [Compound 251, (R)-4-(4-((1-(3-(difluoromethyl)-2-fluorophenyl)ethyl)amino)-7-(2-(dimethylamino)ethoxy)pyrido[2,3-d]pyrimidin-6-yl)tetrahydro-2H-thiopyran 1,1-dioxide] | < 100 | < 50 | 1000 to 10000 |  | ≤ 1000 | < 500
5 | Cc1nc(N[C@H](C)c2cccc(C(F)F)c2F)c2cc(C3CCN(C(C)C)CC3)c(OC3COC3)nc2n1 [Compound 335, (R)-N-(1-(3-(difluoromethyl)-2-fluorophenyl)ethyl)-6-(1-isopropylpiperidin-4-yl)-2-methyl-7-(oxetan-3-yloxy)pyrido [2,3-d]pyrimidin-4-amine] | < 100 |  | ≤ 1000 |  | ≤ 1000 | 
6 | COc1nc2nc(C)nc(N[C@H](C)c3cccc(C(F)F)c3F)c2cc1C1CCN(C(=O)NC2COC2)CC1 [Compound 116, (R)-4-(4-((1-(3-(difluoromethyl)-2-fluorophenyl)ethyl)amino)-7-methoxy-2-methylpyrido[2,3-d]pyrimidin-6-yl)-N-(oxetan-3-yl)piperidine-1-carboxamide] |  | < 50 | ≤ 1000 |  | ≤ 1000 | 
7 | CCN1CCN(c2cc3c(N[C@H](C)c4cccc(C(F)(F)F)c4F)nc(C)nc3nc2OC)CC1 [Compound 383, (R)-6-(4-ethylpiperazin-1-yl)-N-(1-(2-fluoro-3-(trifluoromethyl)phenyl)ethyl)-7-methoxy-2-methylpyrido[2,3-d]pyrimidin-4-amine] | < 100 | < 50 | ≤ 1000 | < 500 | ≤ 1000 | < 500
8 | Cc1nc(N[C@H](C)c2cccc(C(F)(F)F)c2F)c2cc(N3CCS(=O)(=O)CC3)c(Cl)nc2n1 [Compound 257, (R)-4-(7-chloro-4-((1-(2-fluoro-3-(trtfluoromethyl)phenyl)ethyl)amino)-2-methylpyrido[2,3-d]pyrimidin-6-yl)thiomorpholine 1,1-dioxide] | < 100 | < 50 | ≤ 1000 | < 500 | ≤ 1000 | < 500
9 | COCCOc1nc2nc(C)nc(N[C@H](C)c3cccc(C(F)F)c3F)c2cc1N1CCN(C)CC1 [Compound 343, (R)-N-(1-(3-(difluoromethyl)-2-fluorophenyl)ethyl)-7-(2-methoxyethoxy)-2-methyl-6-(4-methylpiperazin-1-yl)pyrido[2,3-d] pyrimidin-4-amine] | < 100 | < 50 | ≤ 1000 |  | ≤ 1000 | < 500
10 | COc1nc2nc(C)nc(N[C@H](C)c3cccc(C(F)F)c3F)c2cc1C1CCS(=N)(=O)CC1 (stereo partly drawn) [Compound 153, 4-(4-(((R)-1-(3-(difluoromethyl)-2-fluorophenyl)ethyl)amino)-7-methoxy-2-methylpyrido[2,3-d]pyrimidin-6-yl)-1-iminohexahydro-1λ6-thiopyran 1-oxide] | < 100 | < 50 | ≤ 1000 | < 500 | ≤ 1000 | < 500
11 | CCN1CCN(c2cc3c(N[C@H](C)c4cccc(C(F)F)c4F)ncnc3nc2OC)CC1 [Compound 372, (R)-N-(1-(3-(difluoromethyl)-2-fluorophenyl)ethyl)-6-(4-ethylpiperazin-1-yl)-7-methoxypyrido[2,3-d]pyrimidin-4-amine] | < 100 |  | ≤ 1000 | < 500 | ≤ 1000 | < 500
12 | Cc1nc(N[C@H](C)c2cccc(C(F)(F)F)c2C)c2cc(C3(C#N)CC3)c(N3CCN(C(C)C)CC3)nc2n1 [Compound 178, (R)-1-(7-(4-isopropylpiperazin-1-yl)-2-methyl-4-((1-(2-methyl-3-(trifluoromethyl)phenyl)ethyl)amino)pyrido[2,3-d]pyrimidin-6-yl)cyclopropane-1-carbonitrile] | < 100 | < 50 | ≤ 1000 | < 500 | 1000 to 10000 | 
13 | COc1nc2ncnc(N[C@H](C)c3cccc(CC(F)F)c3F)c2cc1C1CCS(=O)(=O)CC1 [Compound 152, (R)-4-(4-((1-(3-(2,2-difluoroethyl)-2-fluorophenyl)ethyl)amino)-7-methoxypyrido[2,3-d]pyrimidin-6-yl)tetrahydro-2H-thiopyran 1,1-dioxide] | < 100 | < 50 | ≤ 1000 |  | ≤ 1000 | 
14 | COc1nc2nc(C)nc(N[C@H](C)c3cccc(C(F)(F)C4CCN(C(C)C)CC4)c3)c2cc1C1CCN(C(C)C)CC1 [Compound 420, (R)-N-(1-(3-(difluoro(1-isopropylpiperidin-4-yl)methyl)phenyl)ethyl)-6-(1-isopropylpiperidin-4-yl)-7-methoxy-2-methylpyrido[2,3-d] pyrimidin-4-amine] | < 100 | < 50 | ≤ 1000 | < 500 | ≤ 1000 | < 500
15 | Cc1nc(N[C@H](C)c2cccc(C(F)F)c2F)c2cc(C3(C#N)CC3)c(O[C@H]3CCN(C)C3)nc2n1 [Compound 233, 1-(4-(((R)-1-(3-(difluoromethyl)-2-fluorophenyl)ethyl)amino)-2-methyl-7-(((S)-1-methylpyrrolidin-3-yl)oxy)pyrido [2,3-d]pyrimidin-6-yl)cyclopropane-1-carbonitrile] | < 100 | < 50 | ≤ 1000 | < 500 | ≤ 1000 | < 500
16 | COc1nc2ncnc(N[C@H](C)c3cccc(C(F)(F)F)c3F)c2cc1N1CCN(C2CCOCC2)CC1 [Compound 166, (R)-N-(1-(2-fluoro-3-(trifluoromethyl)phenyl)ethyl)-7-methoxy-6-(4-(tetrahydro-2H-pyran-4-yl)piperazin-1-yl)pyrido[2,3-d]pyrimidin-4-amine] | < 100 | < 50 | ≤ 1000 | < 500 | ≤ 1000 | < 500
17 | COc1nc2nc(OCC3COC3)nc(N[C@H](C)c3cccc(C(F)F)c3F)c2cc1C1(C#N)CC1 [Compound 278, (R)-1-(4-((1-(3-(difluoromethyl)-2-fluorophenyl)ethyl)amino)-7-methoxy-2-(oxetan-3-ylmethoxy)pyrido [2,3-d]pyrimidin-6-yl)cyclopropane-1-carbonitrile] | < 100 |  | > 10000 |  | 1000 to 10000 | 
18 | COc1nc2ncnc(N[C@H](C)c3cccc(C(F)(F)C4CCN(C(C)C)CC4)c3)c2cc1N1CCN(C(C)C)CC1 [Compound 421, (R)-N-(1-(3-(difluoro(1-isopropylpiperidin-4-yl)methyl)phenyl)ethyl)-6-(4-isopropylpiperazin-1-yl)-7-methoxypyrido[2,3-d] pyrimidin-4-amine] | < 100 | < 50 | ≤ 1000 | < 500 | ≤ 1000 | < 500
19 | C[C@@H](Nc1ncnc2nc(OC3COC3)c(N3CCS(=O)(=O)CC3)cc12)c1cccc(C(F)F)c1F [Compound 231, (R)-4-(4-((1-(3-(difluoromethyl)-2-fluorophenyl)ethyl)amino)-7-(oxetan-3-yloxy)pyrido[2,3-d]pyrimidin-6-yl)thiomorpholine 1,1-dioxide] | < 100 | < 50 | ≤ 1000 |  | 1000 to 10000 | 
20 | COc1nc2nc(C)nc(N[C@H](C)c3cccc(CC(F)F)c3F)c2cc1C1CCS(=O)(=O)CC1 [Compound 147, (R)-4-(4-((1-(3-(2,2-difluoroethyl)-2-fluorophenyl)ethyl)amino)-7-methoxy-2-methylpyrido[2,3-d]pyrimidin-6-yl)tetrahydro-2H-thiopyran 1,1-dioxide] | < 100 | < 50 | ≤ 1000 |  | ≤ 1000 | < 500
